Three compounds from ChEMBL document CHEMBL3045235, “Synthesis of aspirin eugenol ester and its biological activity” (Med Chem Res, 2012) can be followed below.

In data set [1] the test system is Mus musculus. Put plainly: Analgesic activity in Mus musculus (mouse) assessed as pain threshold at 1.1 mmol/kg, ig after 30 min by hot plate test (reference value: 24.88 +/- 5.28 sec). Type of data set: functional.
For data set [2], the system named is Rattus norvegicus. Kind of data set: Antipyretic activity against yeast-induced hyperthermia in Rattus norvegicus (rat) assessed as change in body temperature at 1.5 mmol/kg after 6 hr. In kind it is functional, organism-based.
Data set [3] has as its system Mus musculus. Kind of data set: Analgesic activity in Mus musculus (mouse) assessed as pain threshold at 1.1 mmol/kg, ig after 120 min by hot plate test (reference value: 19.06 +/- 4.55 sec). Type of data set: functional.
In data set [4] the test system is Mus musculus. Kind of data set: Toxicity in ig dosed Mus musculus (mouse) assessed as effect on heart after 7 days. In kind it is organism-based. The following applies: in vivo, po, 168 h.
For data set [5], the system named is Mus musculus. Kind of data set: Toxicity in ig dosed Mus musculus (mouse) assessed as effect on liver measured post autopsy. The following applies: in vivo, po. In kind it is organism-based.
Data set [6] can be described thus: Toxicity in ig dosed Mus musculus (mouse). The following applies: in vivo, po. In kind it is organism-based.
Data set [7] deals with Rattus norvegicus. Kind of data set: Antipyretic activity against yeast-induced hyperthermia in Rattus norvegicus (rat) assessed as change in body temperature at 1.5 mmol/kg after 2 hr. In kind it is functional, organism-based.
The subject of data set [8] is Rattus norvegicus. Put plainly: Antipyretic activity against yeast-induced hyperthermia in Rattus norvegicus (rat) assessed as change in body temperature at 2 mmol/kg after 6 hr. In kind it is functional, organism-based.
Data set [9] concerns Rattus norvegicus. Put plainly: Antipyretic activity against yeast-induced hyperthermia in Rattus norvegicus (rat) assessed as change in body temperature at 1 mmol/kg after 4 hr. In kind it is functional, organism-based.
Data set [10] deals with Rattus norvegicus. Kind of data set: Antipyretic activity against yeast-induced hyperthermia in Rattus norvegicus (rat) assessed as change in body temperature at 1 mmol/kg after 6 hr. In kind it is functional, organism-based.
The subject of data set [11] is Rattus norvegicus. Kind of data set: Antipyretic activity against yeast-induced hyperthermia in Rattus norvegicus (rat) assessed as change in body temperature at 1.5 mmol/kg after 4 hr. Type of data set: functional, organism-based.
For data set [12], the system named is Mus musculus. Put plainly: Toxicity in ig dosed Mus musculus (mouse) assessed as effect on liver after 7 days. In kind it is organism-based. The following applies: in vivo, po, 168 h.
Data set [13] relates to Mus musculus. Put plainly: Toxicity in ig dosed Mus musculus (mouse) assessed as effect on kidney after 7 days. Type of data set: organism-based. The note with it: in vivo, po, 168 h.
The test system of data set [14] is Mus musculus. Kind of data set: Toxicity in ig dosed Mus musculus (mouse) assessed as mortality within 24 hr. Type of data set: organism-based. The following applies: in vivo, po.
The test system of data set [15] is Mus musculus. Put plainly: Analgesic activity in Mus musculus (mouse) assessed as pain threshold at 1.1 mmol/kg, ig after 180 min by hot plate test (reference value: 17.67 +/- 5.78 sec). In kind it is functional.
The test system of data set [16] is Mus musculus. Kind of data set: Analgesic activity in Mus musculus (mouse) assessed as pain threshold at 0.56 mmol/kg, ig after 120 min by hot plate test (reference value: 19.06 +/- 4.55 sec). In kind it is functional.
The subject of data set [17] is Rattus norvegicus. Kind of data set: Antipyretic activity against yeast-induced hyperthermia in Rattus norvegicus (rat) assessed as change in body temperature at 2 mmol/kg after 4 hr. Type of data set: functional, organism-based.
Data set [18] has as its system Mus musculus. Put plainly: Toxicity in ig dosed Mus musculus (mouse) assessed as effect on spleen after 7 days. Type of data set: organism-based. The following applies: in vivo, po, 168 h.
The subject of data set [19] is Mus musculus. Kind of data set: Toxicity in ig dosed Mus musculus (mouse) assessed as effect on heart measured post autopsy. In kind it is organism-based. The note with it: in vivo, po.
Data set [20] relates to Mus musculus. Kind of data set: Analgesic activity in Mus musculus (mouse) assessed as pain threshold at 0.56 mmol/kg, ig after 60 min by hot plate test (reference value: 21.28 +/- 3 sec). Type of data set: functional.
Data set [21] deals with Mus musculus. Kind of data set: Analgesic activity in Mus musculus (mouse) assessed as pain threshold at 0.56 mmol/kg, ig after 30 min by hot plate test (reference value: 24.88 +/- 5.28 sec). Type of data set: functional.
In data set [22] the test system is Mus musculus. Put plainly: Analgesic activity in Mus musculus (mouse) assessed as pain threshold at 0.56 mmol/kg, ig after 180 min by hot plate test (reference value: 17.67 +/- 5.78 sec). Type of data set: functional.
For data set [23], the system named is Mus musculus. Kind of data set: Anti-inflammatory activity against xylene-induced ear swelling Mus musculus (mouse) model as suppression of ear swelling at 1.11 mmol/kg, ig measured 1 hr after xylene challenge. The following applies: po. Type of data set: functional.
Data set [24] relates to Mus musculus. Put plainly: Analgesic activity in Mus musculus (mouse) assessed as pain threshold at 1.1 mmol/kg, ig after 60 min by hot plate test (reference value: 21.28 +/- 3 sec). Type of data set: functional.
The subject of data set [25] is Mus musculus. Put plainly: Anti-inflammatory activity against xylene-induced ear swelling Mus musculus (mouse) model as suppression of ear swelling at 0.56 mmol/kg, ig measured 1 hr after xylene challenge. In kind it is functional. The note with it: po.
Data set [26] has as its system Rattus norvegicus. Put plainly: Antipyretic activity against yeast-induced hyperthermia in Rattus norvegicus (rat) assessed as change in body temperature at 1 mmol/kg after 2 hr. Type of data set: functional, organism-based.
Data set [27] has as its system Rattus norvegicus. Kind of data set: Antipyretic activity against yeast-induced hyperthermia in Rattus norvegicus (rat) assessed as change in body temperature at 2 mmol/kg after 2 hr. Type of data set: functional, organism-based.
In data set [28] the test system is Mus musculus. Put plainly: Toxicity in ig dosed Mus musculus (mouse) assessed as effect on kidney measured post autopsy. The following applies: in vivo, po. In kind it is organism-based.
For data set [29], the system named is Mus musculus. Kind of data set: Toxicity in ig dosed Mus musculus (mouse) assessed as effect on spleen measured post autopsy. In kind it is organism-based. The note with it: in vivo, po.

As for `C=CCc1ccc(OC(=O)c2ccccc2OC(C)=O)c(OC)c1` [ASPIRIN EUGENOL ESTER], the Time came out at 29.5 s in the data set on Mus musculus [1]; 28.74 s in the data set on Mus musculus [3]; 29.69 s with Mus musculus [15]; 26.85 s in the data set with Mus musculus [16]; 28.81 s in the data set with Mus musculus [20]; 24.45 s with Mus musculus [21]. Also, the Time is reported as 29.13 s in the data set on Mus musculus [22] and 28.8 s in the data set on Mus musculus [24]. The deltaT in the data set with Rattus norvegicus [2] is -1.45 °C; in the data set on Rattus norvegicus [7], -1.14 °C; with Rattus norvegicus [8], -2.49 °C; in the data set on Rattus norvegicus [9] it was -1.29 °C; in the data set with Rattus norvegicus [10], -1.32 °C; in the data set on Rattus norvegicus [11], -1.4 °C. Besides, the deltaT in the data set on Rattus norvegicus [17] was -2.46 °C; in the data set with Rattus norvegicus [26] it was -1.2 °C; with Rattus norvegicus [27], -2.09 °C. In addition, the Activity entry in the data set on Mus musculus [4] was “Non-toxic”; in the data set on Mus musculus [5], “Non-toxic”; with Mus musculus [12] it was “Non-toxic”; with Mus musculus [13], “Non-toxic”; in the data set with Mus musculus [14] it was “Toxic”; with Mus musculus [18] it was “Non-toxic”. The Activity result in the data set on Mus musculus [19], in the data set on Mus musculus [28] and in the data set on Mus musculus [29] was “Non-toxic” each time. The compound also returned a 50% lethal dose (LD50) in data set [6] of 10900 mg/kg. Besides, the inhibition in vivo at 1110 µmol/kg with Mus musculus [23] was determined as 45.9%. This compound came in with an inhibition in vivo at 560 µmol/kg in the data set on Mus musculus [25] of 44.8%.
Turning to `CC(=O)Oc1ccccc1C(=O)O` [ASPIRIN], the deltaT in the data set on Rattus norvegicus [2] was -1.78 °C; in the data set with Rattus norvegicus [7], -2.19 °C; with Rattus norvegicus [11], -1.8 °C. This compound displayed an LD50 in data set [6] of 250 mg/kg. In addition, the inhibition in vivo at 1110 µmol/kg in the data set with Mus musculus [23] was found to be 45.2%.
Take `C=CCc1ccc(O)c(OC)c1` [EUGENOL]: the Time with Mus musculus [1] is on record as 30.76 s; in the data set on Mus musculus [3], 24.86 s; in the data set with Mus musculus [15] it was 25.5 s; in the data set with Mus musculus [24], 28.01 s. Moreover, the deltaT is -1.21 °C in the data set with Rattus norvegicus [2], -0.94 °C in the data set with Rattus norvegicus [7] and -1.11 °C with Rattus norvegicus [11]. Besides, in data set [6], the median lethal dose (LD50) amounted to 3000 mg/kg. This compound had an inhibition in vivo at 1110 µmol/kg with Mus musculus [23] of 32.9%.
